Experimental findings from PMC9065177, “Polymer chimera of stapled oncolytic peptide coupled with anti-PD-L1 peptide boosts immunotherapy of colorectal cancer” (Theranostics, 2022) are described below.

Data set [1] in a line: Proteolytic stability in α-chymotrypsin solution. The class given is in vitro ADME. To be noted: α-chymotrypsin solution, pH 7.4; after 1 h exposure to α-chymotrypsin; read-out: peptide remaining intact. On the procedure:
(§1) The peptides were dissolved in H2O to a final concentration at 2 mM, respectively. α-Chymotrypsin was dissolved in PBS (0.5 ng/μL, containing 2 mM CaCl2, pH 7.4). Then, the peptide solutions (50 μL) were incubated with α-chymotrypsin solution (950 μL) at 37 ℃. 100 μL of digestion mixture was taken at the different time and then quenched with 20 μL of hydrochloric acid (1 M). The percent residual peptide was monitored by HPLC at 214 nm. Each experiment was performed in triplicate.

Another data set has as its target α-Chymotrypsin (Bos taurus, UniProt P00766). In words: Proteolytic stability in α-chymotrypsin solution. The data set is classed as in vitro ADME. On the procedure:
as §1

The next data set relates to red blood cells (RBC). In words: Hemolysis assay (hemoglobin release from erythrocytes). The class given is cell-based, mice. On the procedure:
The hemolytic activities of the peptides and peptide-polymer conjugates were evaluated by determining hemoglobin release from suspensions of mice blood. Fresh erythrocytes were obtained from the whole blood by centrifuging at 4 ℃ 1000 g for 30 min and washing with PBS 2 times. Then erythrocytes were diluted with PBS at the volume ration of 1:10. The 96-well plate was added to 100 μL erythrocyte suspension per well and incubated with peptides and conjugates solution with different concentrations for 1 h at 37 ℃, following centrifuged at 1000 rpm for 10 min. The supernatants were obtained and monitored by measuring absorbance at 570 nm (BioTek Cytation 5, USA) as previously described. 0.1% (v/v) Triton X-100 was used as a positive control and PBS was used as a negative control.

SMILES strings stand for the structures. Positions of bridges follow the written chain, without caps; N, C: chain ends. Non-standard residues stand in square brackets, D forms with d. Residues, ends and D or L forms follow the SMILES beside them. S5 = C=CCCC[C@](C)(N)C(=O)O

By amount remaining is commonly meant the share of the starting amount still present when the sample was taken.

Regarding `CC[C@H](C)[C@H](NC(C)=O)C(=O)N[C@@H](CC(N)=O)C(=O)N[C@@H](CC(C)C)C(=O)N[C@@H](CCCCN)C(=O)N[C@@H](C)C(=O)N[C@@H](CC(C)C)C(=O)N[C@@H](C)C(=O)N[C@@H](C)C(=O)N[C@@]1(C)CCCC=CCCC[C@@](C)(C(=O)N[C@@H](CC(C)C)C(N)=O)NC(=O)[C@H](CCCCN)NC(=O)[C@H](CCCCN)NC(=O)[C@H](C)NC1=O` [MP9] (Ac-INLKALAA[S5]AKK[S5]L-NH2; staple 9-13), the fraction remaining at 1 h, 0.1 mM in data set [1] is > 87%. For the same compound, the half-life at α-Chymotrypsin (0.5 ng/μL α-chymotrypsin, pH 7.4, 37 ℃, read-out: T1/2 in α-chymotrypsin solution (converted)) was 5.27 h. Besides, the “fold increase in half-life (T1/2) versus MP” value on α-Chymotrypsin (α-chymotrypsin) amounted to 12.55 fold. In addition, the “RBC hemolytic activity (in words)” value in the data set on red blood cells (RBC) is recorded as “lowest level of RBC hemolysis”.
